Measurements published in paper PMC8999917, “Structure–Activity Relationship of Synthetic Ginkgolic Acid Analogs for Treating Type 2 Diabetes by PTPN9 Inhibition” (International Journal of Molecular Sciences, 2022).

Key:
[1] = biological target: T1, PTPN9 (Homo sapiens, UniProt P43378); test: PTPN9 enzyme inhibition with DiFMUP substrate; format: biochemical; conditions: DiFMUP 220 µM, PTPN9 0.15 nM; NA: no activity
T1 construct: made in house; host or cells: Escherichia coli Rosetta (DE3)
T1 sequence (P43378 277-581): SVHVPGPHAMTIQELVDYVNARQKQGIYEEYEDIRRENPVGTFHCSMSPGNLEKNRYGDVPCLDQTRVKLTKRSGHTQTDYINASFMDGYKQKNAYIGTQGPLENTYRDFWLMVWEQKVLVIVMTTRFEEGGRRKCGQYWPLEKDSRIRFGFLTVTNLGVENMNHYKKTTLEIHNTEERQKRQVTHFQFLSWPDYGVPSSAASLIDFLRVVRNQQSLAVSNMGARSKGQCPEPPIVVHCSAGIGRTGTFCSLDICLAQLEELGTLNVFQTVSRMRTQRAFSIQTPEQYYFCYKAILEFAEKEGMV
Procedure: (§1) The purification and kinetic analyses of PTPN9 and DUSP9 (Ser277–581) were performed following methods described in the literature, with slight modifications. PAGE analysis data and enzyme kinetic constants are presented in Figure S1 and Table S1, respectively. Enzyme activity in the presence or absence of the compounds was measured using DiFMUP, a representative PTP fluorogenic substrate. First, the inhibitory effects of compounds 1–3 were evaluated using 50 µM PTPN9 and 20 µM DUSP9. There was an increase in the inhibitory activity of compound 1 for both enzymes as the number of CH2 units increased from 9 to 14 (Figure 2A,B).
(§2) Next, the IC50 values of the compounds, which induce a 50% inhibition of DiFMUP hydrolytic enzyme activity, were determined (Table 1). The IC50 values were determined from the dose–response enzyme inhibition curves of each compound. The dose–response curves for compounds 1e and 1f against PTPN9 and DUSP9, respectively, are presented in Figure 2C,D. Dose–response curves were also obtained for the other compounds (Figures S2 and S3).
(§3) The methods employed for PTP overexpression and purification have been described in a previous study. In brief, human PTPN9 and DUSP9 were cloned into a pET28a vector (Merk Millipore, Darmstadt, Germany) containing a hexahistidine (His6) tag or a maltose-binding protein (MBP) tag in its N-terminus (see Supplementary Materials). Recombinant genes were separately transformed into Escherichia coli Rosetta (DE3) (Merk Millipore, Darmstadt, Germany), and the overexpression of each gene was induced via the addition of 0.1 mM IPTG (Ducherfa Biochemie, Haarlem, RV, USA). After 16 h of incubation at 18 °C, cell pellets were obtained via centrifugation (3570× g at 4 °C for 15 min), resuspended in lysis buffer (50 mM Tris, pH: 7.5, 500 mM NaCl, 5% glycerol, 0.025% 2-mercaptoethanol, and 1 mM phenyl-methylsulfonyl fluoride (PMSF)), and lysed by ultrasonication. Subsequently, cell lysates were centrifuged at 29,820× g for 30 min at 4 °C; then, the supernatant was collected and incubated with a cobalt affinity resin (TALON® Metal Affinity Resin, Takara Korea, Seoul, Korea). After 1 h of incubation at 4 °C, the desired proteins were eluted by adding the lysis buffer supplemented with 100 mM imidazole. Samples were stored at –80 °C until use.
(§4) The enzymatic activities of purified PTPN9 and DUSP9 were measured using 6,8-difluoro-4-methylumbelliferyl phosphate (DiFMUP), the most widely used fluorogenic PTP substrate in the literature. To determine KM values, PTPN9 (0.15 nM) and DUSP9 (200 nM) were added to a reaction buffer (20 mM Bis-tris, pH: 7.0, 150 mM NaCl, 2.5 mM dithiothreitol (DTT), and 0.01% Triton X-100) containing DiFMUP (800, 400, 200, 100, 50, 25, 12.5, or 6.25 μM) in a 96-well black plate. The final reaction volume was 100 µL. The fluorescence intensity was continuously monitored for 10 min (Ex/Em = 355/460 nm) on a Victor™ X4 multilabel plate reader (Perkin Elmer, Norwalk, CT, USA). KM values were obtained using Lineweaver–Burk plots analysis.
(§5) To evaluate the enzyme inhibitory effects of GA and its analogs, 10 µl of the enzyme stock solution (1.5 nM PTPN9 and 2 µM DUSP9) in the reaction buffer was added into the mixture of DiFMUP (to a final concentration of 220 µM and 90 µM for PTPN9 and DUSP9, respectively) and each compound (to a final concentration of 50 µM and 20 µM for PTPN9 and DUSP9, respectively) was added to the reaction buffer. Enzyme activity was measured as described above. Half-inhibitory concentration (IC50) values were determined under similar conditions, except for the concentrations of the inhibitors (200, 100, 50, 25, 12.5, 6.25, or 3.125 µM for PTPN9 and 25, 12.5, 6.25, 3.125, 1.563, 0.782, or 0.391 µM for DUSP9). The dose-dependent curve was fitted to the four-parameter logistic regression equation, (y = a + (b – a)/(1 + (x/c)^d), to obtain IC50 values using the Kaleida Graph software Ver. 4.1.3. (Synergy Software Inc, PA, USA).

[2] = biological target: T2, DUSP9 (Homo sapiens, UniProt Q99956); test: DUSP9 enzyme inhibition with DiFMUP substrate; format: biochemical; conditions: DiFMUP 90 µM, DUSP9 200 nM; NA: no activity
T2 construct: made in house; host or cells: Escherichia coli Rosetta (DE3)
T2 sequence (Q99956 1-384): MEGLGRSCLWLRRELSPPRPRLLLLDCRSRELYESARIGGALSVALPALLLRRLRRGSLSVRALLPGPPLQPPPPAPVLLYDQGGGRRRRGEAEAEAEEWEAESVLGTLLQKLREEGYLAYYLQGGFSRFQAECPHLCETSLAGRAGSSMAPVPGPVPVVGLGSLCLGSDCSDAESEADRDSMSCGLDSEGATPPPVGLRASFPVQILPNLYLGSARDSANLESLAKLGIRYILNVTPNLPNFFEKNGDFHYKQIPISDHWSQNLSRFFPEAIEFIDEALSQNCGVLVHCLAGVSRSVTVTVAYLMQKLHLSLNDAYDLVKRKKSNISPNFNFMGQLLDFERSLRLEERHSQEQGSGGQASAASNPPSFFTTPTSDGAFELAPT
Procedure: as §1, §2, §3, §4, §5

[3] = biological target: T1, PTPN9; test: Kinetics of DiFMUP hydrolysis by PTPN9; format: biochemical; conditions: [E] 0.15 nM
Procedure: (§6) The purification and kinetic analyses of PTPN9 and DUSP9 (Ser277–581) were performed following methods described in the literature, with slight modifications. […] Enzyme activity in the presence or absence of the compounds was measured using DiFMUP, a representative PTP fluorogenic substrate.
as §4

[4] = biological target: T2, DUSP9; test: Kinetics of DiFMUP hydrolysis by DUSP9; format: biochemical; conditions: [E] 200.0 nM
Procedure: as §6, §4

[5] = test system: 3T3-L1 adipocytes; test: 2-NBDG glucose uptake assay in differentiated 3T3-L1 adipocytes; format: cell-based, mouse; conditions: 100 nM
Procedure: PTPN9 inhibitors have been reported to increase glucose uptake. To clarify the antidiabetic effects of GA analogs, a 2-NBDG (a fluorescent glucose probe) uptake assay was performed using differentiated 3T3-L1 adipocytes and C2C12 myotubes. After 16 h of starvation, differentiated 3T3-L1 adipocytes were incubated with compounds 1e and 1f for another 1 h. The cells were subsequently incubated with 2-NBDG for 30 min and washed with PBS before quantifying the fluorescence of 2-NBDG taken up by the cells. The 2-NBDG uptake-increasing effects of GA and its analogs in 3T3-L1 cells were monitored via confocal microscopy. The blank group was set in the absence of 2-NBDG but was treated with DMSO to determine the basal fluorescence levels in 3T3-L1 adipocytes (Figure 4A, Basal); in the negative control group, 3T3-L1 adipocytes were treated with 2-NBDG and DMSO for the evaluation of basal glucose uptake levels (Figure 4A, DMSO). […] Furthermore, to quantify 2-NBDG uptake, fluorescence intensity (Ex/Em = 485/535 nm) was measured using a plate reader. […] After incubation, the cells were washed with pre-cold PBS, and the fluorescence intensity was measured using a fluorescence microplate reader (Victor^TM X4, PerkinElmer, Waltham, MA, USA) (Ex/Em = 485/535 nm). […]

| Compound | IC50 [1] | IC50 [2] | other results |
| --- | --- | --- | --- |
| CCCCCCCCCCCCCOc1ccc(C(=O)O)c(O)c1 [Compound 2] | 69.3 ± 6.22 µM | 5.27 ± 0.07 µM |  |
| CCCCCCCCCCCCCOc1ccc(O)c(C(=O)O)c1 [Compound 3] | 36.5 ± 1 µM | 4.68 ± 0.06 µM |  |
| Cc1cc(=O)oc2c(F)c(OP(=O)(O)O)c(F)cc12 [DiFMUP, 6,8-difluoro-4-methylumbelliferyl phosphate] |  |  | Km [3]: 110 µM; Vmax [3]: 1.73 μMmin-1; Km [4]: 45 µM; Vmax [4]: 1.65 μMmin-1; kcat [4]: 0.138 s⁻¹ |
| Insulin: positive control (100 nM) in the 2-NBDG uptake assay |  |  | 2-NBDG uptake (positive control) [5]: significantly stimulated 2-NBDG uptake |

Now from value to compound, other results behind:

| IC50 [1] | IC50 [2] | Compound | other results |
| --- | --- | --- | --- |
| 77.1 ± 0.78 µM | 23.9 ± 0.65 µM | CCCCCCCCCCCOc1cccc(O)c1C(=O)O [Compound 1c] |  |
| 28.54 ± 0.1 µM | 8.61 ± 0.66 µM | CCCCCCCCCCCCOc1cccc(O)c1C(=O)O [Compound 1d] |  |
